Assay results taken from ChEMBL document CHEMBL1139623, “4,5-Disubstituted cis-pyrrolidinones as inhibitors of type II 17beta-hydroxysteroid dehydrogenase. Part 2. SAR” (Bioorg Med Chem Lett, 2005).

Target: T1, 17-beta-hydroxysteroid dehydrogenase type 2 (Homo sapiens, UniProt P37059)
T1 sequence (P37059 whole entry): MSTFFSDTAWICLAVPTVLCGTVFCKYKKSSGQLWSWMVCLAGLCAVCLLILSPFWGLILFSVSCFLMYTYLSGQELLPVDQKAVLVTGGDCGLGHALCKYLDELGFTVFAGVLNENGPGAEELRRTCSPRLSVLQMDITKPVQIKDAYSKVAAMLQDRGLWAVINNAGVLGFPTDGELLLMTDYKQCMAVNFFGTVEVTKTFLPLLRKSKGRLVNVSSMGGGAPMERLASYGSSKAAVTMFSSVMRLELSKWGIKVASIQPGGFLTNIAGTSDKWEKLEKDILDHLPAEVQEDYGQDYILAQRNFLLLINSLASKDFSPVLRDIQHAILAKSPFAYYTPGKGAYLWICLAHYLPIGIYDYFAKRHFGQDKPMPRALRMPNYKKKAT
Assay: Inhibitory concentration against 17 beta hydroxysteroid dehydrogenase type 2 (type II 17-beta-HSD II)

IC50 [nM]	Structure (SMILES)
1520	Cc1cccc([C@H](O)[C@H]2[C@@H](c3ccccc3)CC(=O)N2C)c1
2180	CN1C(=O)C[C@H](c2ccccc2)[C@@H]1Cc1cccc(Cl)c1
590	CN1C(=O)C[C@H](c2ccccc2)[C@@H]1[C@@H](O)c1cc2ccccc2s1
1830	CN1C(=O)C[C@H](c2ccccc2)[C@@H]1[C@@H](O)CCc1ccccc1
> 10000	CN1C(=O)C[C@H](c2ccccc2)[C@@H]1[C@H](O)c1cccc(Cl)c1
880	CN1C(=O)C[C@H](c2ccccc2)[C@@H]1[C@@H](O)c1cccc(C(F)(F)F)c1
960	CN1C(=O)C[C@H](c2ccccc2)[C@@H]1[C@@H](O)c1ccc2c(c1)OCO2
400	CN1C(=O)C[C@H](c2ccccc2)[C@@H]1[C@@H](O)c1cccs1
810	COc1cccc([C@H](O)[C@H]2[C@@H](c3ccccc3)CC(=O)N2C)c1
430	CN1C(=O)C[C@H](c2ccccc2)[C@@H]1[C@@H](O)C#Cc1ccccc1
> 10000	CN1C(=O)C[C@H](c2ccccc2)[C@@H]1C(=O)c1cccs1
440	CN1C(=O)C[C@H](c2ccccc2)[C@@H]1[C@@H](O)c1ccc(Cl)c(Cl)c1
1090	COc1cccc(C#C[C@H](O)[C@H]2[C@@H](c3ccccc3)CC(=O)N2C)c1
1820	Cc1ccc([C@H](O)[C@H]2[C@@H](c3ccccc3)CC(=O)N2C)cc1
320	CN1C(=O)C[C@H](c2ccccc2)[C@@H]1[C@@H](O)C#Cc1ccccc1F
1760	CN1C(=O)C[C@H](c2ccccc2)[C@@H]1[C@@H](O)C#Cc1cccc(O)c1
1960	CN1C(=O)C[C@H](c2ccccc2)[C@@H]1[C@@H](O)c1ccc(Cl)cc1

IC50 [nM]	Structure (SMILES)
1270	CN1C(=O)C[C@H](c2ccccc2)[C@@H]1[C@@H](O)c1ccc(Br)o1
900	CO[C@@H](c1cccc(Cl)c1)[C@H]1[C@@H](c2ccccc2)CC(=O)N1C
3180	CN1C(=O)C[C@H](c2ccccc2)[C@@H]1[C@@H](O)c1ccco1
5000	CN1C(=O)C[C@H](c2ccccc2)[C@@H]1[C@@H](O)c1ccccc1
2390	CN1C(=O)C[C@H](c2ccccc2)[C@@H]1[C@@H](O)Cc1cccc(Cl)c1
1160	CN1C(=O)C[C@H](c2ccccc2)[C@@H]1[C@@H](O)c1coc2ccccc12
560	Cc1ccc([C@H](O)[C@H]2[C@@H](c3ccccc3)CC(=O)N2C)s1
1200	CN1C(=O)C[C@H](c2ccccc2)[C@@H]1[C@@H](O)c1ccc(Br)s1
370	CN1C(=O)C[C@H](c2ccccc2)[C@@H]1[C@@H](O)C#Cc1cccc(N)c1
1230	COc1ccc([C@H](O)[C@H]2[C@@H](c3ccccc3)CC(=O)N2C)cc1
> 10000	CN1C(=O)C[C@H](c2ccccc2)[C@@H]1[C@@H](O)c1cc2ccccc2[nH]1
1370	CC(=O)O[C@@H](c1cccs1)[C@H]1[C@@H](c2ccccc2)CC(=O)N1C
300	CN1C(=O)C[C@H](c2ccccc2)[C@@H]1[C@@H](O)C#Cc1ccccc1Cl
700	CN1C(=O)C[C@H](c2ccccc2)[C@@H]1[C@@H](O)c1cccc(Cl)c1
2980	CN1C(=O)C[C@H](c2ccccc2)[C@@H]1C(F)c1cccs1 (some centres not stated)
2660	CN1C(=O)C[C@H](c2ccccc2)[C@@H]1[C@@H](O)c1csc2ccccc12
> 10000	CN1C(=O)C[C@H](c2ccccc2)[C@@H]1C(=O)c1cccc(Cl)c1

Further lines, the compound ahead of its results:

Structure (SMILES)	IC50 [nM]
CN1C(=O)C[C@H](c2ccc([N+](=O)[O-])cc2)[C@@H]1[C@@H](O)c1ccc(-c2ccccc2)s1	> 10000
CN1C(=O)C[C@H](c2ccccc2)[C@@H]1[C@@H](O)c1ccc(-c2ccc(O)cc2)cc1	1130
CN1C(=O)C[C@H](c2ccccc2)[C@@H]1[C@@H](O)c1ccc(-c2ccccc2)o1	3240
CN1C(=O)C[C@H](c2ccccc2)[C@@H]1[C@@H](O)c1cccc(-c2ccccc2)c1	420
O=C1C[C@H](c2ccccc2)[C@H]([C@@H](O)c2cccs2)N1Cc1ccccc1	4180
CNc1ccc([C@H]2CC(=O)N(C)[C@H]2[C@@H](O)c2ccc(-c3ccccc3)s2)cc1	1670
CN1C(=O)C[C@H](c2ccccc2)[C@@H]1[C@@H](O)C#Cc1ccc(F)cc1	480
CN1C(=O)C[C@H](c2ccccc2)[C@@H]1[C@@H](O)c1ccc(-c2ccc(F)cc2)cc1	1260
CN1C(=O)C[C@H](c2ccc(N)cc2)[C@@H]1[C@@H](O)c1ccc(-c2ccccc2)s1	190
CN1C(=O)C[C@H](c2ccccc2)[C@@H]1[C@@H](O)c1ccc(-c2ccccc2)cc1	1020
CN1C(=O)C[C@H](c2ccccc2)[C@@H]1[C@@H](O)C(C)(C)C	> 10000
CN(C)c1ccc([C@H](O)[C@H]2[C@@H](c3ccccc3)CC(=O)N2C)cc1	1650
CN1C(=O)C[C@H](c2ccc(O)cc2)[C@@H]1[C@@H](O)c1ccc(-c2ccccc2)s1	220
Cc1ccc(C#C[C@H](O)[C@H]2[C@@H](c3ccccc3)CC(=O)N2C)cc1	800
CN1C(=O)C[C@H](c2ccccc2)[C@@H]1[C@@H](O)C#Cc1ccccn1	1500
CN1C(=O)C[C@H](c2ccccc2)[C@@H]1[C@@H](O)/C=C/c1ccc(F)cc1	1400
CN(C)c1ccc([C@H]2CC(=O)N(C)[C@H]2[C@@H](O)c2ccc(-c3ccccc3)s2)cc1	2430
CN1C(=O)C[C@H](c2ccccc2)[C@@H]1[C@@H](O)c1cccc(-c2ccc(F)cc2)c1	2780
CC(=O)Nc1ccc([C@H]2CC(=O)N(C)[C@H]2[C@@H](O)c2ccc(-c3ccccc3)s2)cc1	> 10000
CN1C(=O)C[C@H](c2ccccc2)[C@@H]1[C@@H](O)c1ccc(-c2ccccc2)s1	100
CN1C(=O)C[C@H](c2ccccc2)[C@@H]1[C@@H](O)CCc1ccc(F)cc1	1530
COc1ccc([C@H]2CC(=O)N(C)[C@H]2[C@@H](O)c2ccc(-c3ccccc3)s2)cc1	890
CN1C(=O)C[C@H](c2ccccc2)[C@@H]1[C@@H](OCCO)c1cccs1	> 10000
CO[C@@H](c1cccs1)[C@H]1[C@@H](c2ccccc2)CC(=O)N1C	3910
O=C1C[C@H](c2ccccc2)[C@H]([C@@H](O)c2cccs2)N1	> 10000
CN1C(=O)C[C@H](c2ccc(NS(C)(=O)=O)cc2)[C@@H]1[C@@H](O)c1ccc(-c2ccccc2)s1	> 10000
CN1CC[C@H](c2ccccc2)[C@@H]1[C@@H](O)c1cccs1	> 10000
CN1C(=S)C[C@H](c2ccccc2)[C@@H]1[C@@H](O)c1cccs1	> 10000
